Columns and labels:
[1] = system: Thermomyces lanuginosus CBS 586.94 phytase, purified recombinant, SEQ ID NO:2; assay: Steady-state kinetics by substrate titration, assay of inorganic phosphate liberated from corn phytic acid; format: biochemical
Protocol: (§1) All characterizations were performed with the purified recombinant Thermomyces lanuginosus CBS 586.94 phytase described in Example 11. Comparisons were also made where noted with a standard of an Aspergillus niger (ficuum) phytase obtained from Novo Nordisk A/S, Bagsverd, Denmark.
(§2) Enzyme kinetics studies. Enzyme kinetics studies were performed on the Thermomyces phytase and the Aspergillus niger phytase. The studies were accomplished by assay of inorganic phosphate liberated from corn phytic acid (Sigma Chemical Co., St. Louis, Mo.). Standard enzyme reactions were carried out for 30 minutes at 37° C. and pH 5.5 in 0.5% w/w phytic acid. The reaction was quenched by the addition of an equal volume of 15% w/w trichloroacetic acid. After cooling, 100 μl of the resulting mixture was diluted into 1.0 ml of glass distilled water. The sample was incubated at 50° C. for 5 minutes. Color reagent (1.0 ml) was added and the 50° C. incubation was continued for 15 minutes. The absorbance of a 200 μl aliquot was measured at 690 nm with a Molecular Devices Thermomax Microplate Reader. The color reagent is composed of 6N sulfuric acid: water: 2.5% (w/v) ammonium heptamolybdate, tetrahydrate: 10% ascorbate (aqueous) in a ratio of 1:2:1:1 and prepared fresh on a daily basis. Quantitation was based on a standard curve generated with a 10 mM sodium monobasic phosphate standard. One unit U) is defined as a μmole of inorganic phosphate released per minute at 37° C. and pH 5.5.
Steady-state kinetics measurements were made by substrate titration. Phytate concentrations were 2.16, 1.08, 0.541, 0.216, 0.108, and 0.0758 mM for the purposes of Km determination. Phytate concentrations of 1.08, 0.541, 0.216 and 0.108 mM in the presence or absence of 1 mM sodium monobasic phosphate were used for the purpose of evaluating product inhibition.

Aspergillus phytase = molecular target: T1, Aspergillus phytase (Aspergillus niger, UniProt P34752); conditions: Ullah, 1988, Preparative Biochemistry 18: 443-458; read-out: Ki (phosphate, competitive inhibitor); cited from earlier work
T1 sequence (P34752 24-467): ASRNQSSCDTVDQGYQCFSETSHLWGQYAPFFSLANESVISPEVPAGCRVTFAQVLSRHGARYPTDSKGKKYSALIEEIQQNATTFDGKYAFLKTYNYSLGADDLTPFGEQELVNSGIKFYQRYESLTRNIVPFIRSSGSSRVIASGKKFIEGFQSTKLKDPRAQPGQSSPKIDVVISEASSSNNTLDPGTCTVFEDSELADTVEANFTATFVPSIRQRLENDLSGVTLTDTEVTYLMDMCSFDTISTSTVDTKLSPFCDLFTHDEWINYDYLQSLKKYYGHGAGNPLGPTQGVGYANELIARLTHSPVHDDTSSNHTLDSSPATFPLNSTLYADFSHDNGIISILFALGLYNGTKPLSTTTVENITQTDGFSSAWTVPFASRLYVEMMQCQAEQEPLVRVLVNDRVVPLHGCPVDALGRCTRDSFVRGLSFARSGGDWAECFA

[2] = substrate: O=P(O)(O)O[C@H]1[C@H](OP(=O)(O)O)[C@@H](OP(=O)(O)O)[C@H](OP(=O)(O)O)[C@@H](OP(=O)(O)O)[C@H]1OP(=O)(O)O; assay: Steady-state kinetics by substrate titration, assay of inorganic phosphate liberated from corn phytic acid; format: biochemical, Aspergillus niger (ficuum); conditions: other: 37° C., pH 5.5, phytate 0.0758-2.16 mM
Protocol: as §1
as §2, with “One unit U) is defined as a μmole of inorganic phosphate released per minute at 37° C. and pH 5.5.” left out

Molecule: O=P([O-])(O)O.[Na+] [phosphate, sodium monobasic phosphate]
- product inhibition with 1 mM phosphate present ([1]; 1 mM sodium monobasic phosphate, phytate 0.108-1.08 mM): failed to reveal any type of inhibition
- Ki ([1]; estimated, phytate 0.108-1.08 mM with or without 1 mM sodium monobasic phosphate): > 3000 µM
- Ki (Aspergillus phytase): 1900 µM

Molecule: O=P(O)(O)O[C@H]1[C@H](OP(=O)(O)O)[C@@H](OP(=O)(O)O)[C@H](OP(=O)(O)O)[C@@H](OP(=O)(O)O)[C@H]1OP(=O)(O)O [phytate, myo-inositol hexakisphosphate]
- Km ([1]; 37° C., pH 5.5, phytate 0.0758-2.16 mM, read-out: apparent Km with respect to phytate): ~110 µM

B1: Aspergillus niger (ficuum) phytase, standard obtained from Novo Nordisk A/S (Aspergillus niger) (protein)
chain: T1 sequence (P34752 24-467)
notes: purchased Novo Nordisk A/S, Bagsverd, Denmark
- Km [2]: 200 µM

Reference: patent US5866118A, “Polypeptides having 3g6-phytase activity from thermomyces and nucleic acids encoding same” (Novo Nordisk Biotech, Inc., priority 1997, dated 1999)
